Patent US4923813A, “Monoclonal antibody-based immunoassay for cyclic DNA adducts resulting from exposure to crotonaldehyde or acrolein” (American Health Foundation, priority 1988, dated 1990)

Experiments:
monoclonal antibody CA2 = assay: competitive ELISA, inhibition of binding of antibody CA2 to structure 1a,b-KLH conjugate; set-up: species or system mouse; settings: for pmol of compound needed for 50% inhibition of binding in the competitive ELISA, CA2: plate coated with structure 1a,b-KLH conjugate
From the text: (§1) Screening for Antibody Production. In order to screen the fused cells for the production of antibody specific for the cyclic deoxyguanosine adducts, an enzyme-linked immunosorbent assay ("ELISA") may be used. ELISA links soluble antigens to insoluble antibodies or soluble antibodies to solid phase antigens in a manner that allows both immunolgical and enzymatic activity to be retained.
(§2) ELISA techniques for antigen or antibody quantification are well-known to the art. By way of example, wells of a 96-well polystyrene ELISA plate may be coated with 10 ng of structure a, b-KLH conjugate, diluted in Phosphate buffered saline (PBS), for 1 h at room temperature. The wells may be washed twice with PBS containing 0.1% Tween 20 and twice with distilled H2 O. From this point all reagents may be diluted in PBS containing 0.1% bovine serum albumin ("BSA"). Wells are filled with 50 μl of PBS-BSA followed by 50 μl of culture supernatant and incubated at room temperature for 1 h. For competitive ELISA, adduct standards or test samples are mixed with the monoclonal antibody and added to the well. The wells are washed and 100 μl of alkaline phosphatase-labeled goat anti-mouse 1 gG antibody (Kirkegaard & Perry Laboratories, Inc., Gaithersburg, Md.) are added to each well and incubated at room temperature for 1 h. After washing, 100 μl of substrate solution (1 mg/ml of p-nitrophenylphosphate in 1M diethanolamine buffer, pH 9.8) are added to each well and incubated at room temperature for 30 min. […] In quantitative experiments the concentration of unknown samples may be determined by comparison to a standard curve relating the log of the inhibitor concentration to the logit of the percentage of inhibition [formula]
(§3) Using the above-identified procedures, a single mouse was boosted with the structure 1a,b-KLH conjugate for 4 consecutive days and the fusion was performed on the fifth day.

[1] = test system: the four antibodies (CA1, CA2, CA3, CA4); assay: competitive ELISA, reactivity of the four antibodies; format: binding, mouse; settings: all four antibodies; O6-methyldeoxyguanosine: with the exception of CA3
From the text: as §1, §2, §3

monoclonal antibody CA3 = assay: competitive ELISA, inhibition of binding of antibody CA3 to structure 1a,b-KLH conjugate; set-up: species or system mouse; settings: for pmol of compound needed for 50% inhibition of binding in the competitive ELISA, CA3: plate coated with structure 1a,b-KLH conjugate
From the text: as §1, §2, §3

monoclonal antibody CA1 = assay: competitive ELISA, inhibition of binding of antibody CA1 to structure 1a,b-KLH conjugate; set-up: species or system mouse; settings: for pmol of compound needed for 50% inhibition of binding in the competitive ELISA, CA1: plate coated with structure 1a,b-KLH conjugate
From the text: as §1, §2, §3

monoclonal antibody CA4 = assay: competitive ELISA, inhibition of binding of antibody CA4 to structure 1a,b-KLH conjugate; set-up: species or system mouse; settings: plate coated with structure 1a,b-KLH conjugate
From the text: as §1, §2, §3

| pmol of compound needed for 50% inhibition of binding in the competitive ELISA, CA2 (monoclonal antibody CA2) | pmol of compound needed for 50% inhibition of binding in the competitive ELISA, CA3 (monoclonal antibody CA3) | pmol of compound needed for 50% inhibition of binding in the competitive ELISA, CA1 (monoclonal antibody CA1) | pmol of compound needed for 50% inhibition of binding in the competitive ELISA, CA4 (monoclonal antibody CA4) | affinity of antibody CA1 (monoclonal antibody CA1) | specificity of antibody CA2 (monoclonal antibody CA2) | SMILES | reactivity / cross-reactivity with the four antibodies [1] | affinity / reactivity of antibody CA3 (monoclonal antibody CA3) |
| --- | --- | --- | --- | --- | --- | --- | --- | --- |
| 9 pmol | 5 pmol | 90 pmol | 112 pmol | – | – | O=c1c2ncn([C@H]3C[C@H](O)[C@@H](CO)O3)c2nc2n1CCC(O)N2 (stereo partly drawn) [1c] | Cross-reactivity | less reactive than the above three molecules |
| 0.4 pmol | 10 pmol | 0.2 pmol | 0.9 pmol | high apparent affinity | – | CC1CC(O)n2c(nc3c(ncn3[C@H]3C[C@H](O)[C@@H](CO)O3)c2=O)N1 (mixture of isomers) [1b, 8R, 6R- and 8S, 6S-3-(2-deoxy-3-β-erythro-pentofuranosyl) 5,6,7,8-tetrahydro-8-hydroxy-6-methylpyrimido(1,2-a)purine-10(3H)one] | strongest | – |
| 0.2 pmol | 0.9 pmol | 0.8 pmol | 7.9 pmol | – | most specific | O=c1c2ncn([C@H]3C[C@H](O)[C@@H](CO)O3)c2nc2n1C(O)CCN2 (stereo partly drawn) [1d] | Cross-reactivity | – |
| > 80,000 pmol | > 80,000 pmol | > 80,000 pmol | > 80,000 pmol | – | – | Nc1ncnc2c1ncn2[C@H]1C[C@H](O)[C@@H](CO)O1 [Deoxyadenosine, reference compound] | – | – |
| 17 pmol | 0.2 pmol | 12.8 pmol | 10 pmol | lower affinity | – | CC1CC(O)n2c(nc3c(ncn3[C@H]3C[C@H](O)[C@@H](CO)O3)c2=O)N1 (mixture of isomers) [1a, 8R, 6R- and 8S, 6S-3-(2-deoxy-3-β-erythro-pentofuranosyl) 5,6,7,8-tetrahydro-8-hydroxy-6-methylpyrimido(1,2-a)purine-10(3H)one] | strongest | highest affinity of the four antibodies |
| 156 pmol | 22 pmol | 113 pmol | 41,470 pmol | – | – | O=c1c2ncn([C@H]3C[C@H](O)[C@@H](CO)O3)c2nc2n1C(O)C(O)N2 (stereo partly drawn) [1e] | Cross-reactivity | – |
| 51,270 pmol | 235 pmol | 56,790 pmol | > 100,000 pmol | – | – | COc1nc(N)nc2c1ncn2[C@H]1C[C@H](O)[C@@H](CO)O1 [reference compound] | unreactive | – |
| 698 pmol | 14 pmol | 2,564 pmol | 5,370 pmol | – | – | Nc1nc2c(ncn2[C@H]2C[C@H](O)[C@@H](CO)O2)c(=O)[nH]1 [Deoxyguanosine, reference compound] | significant cross-reactivity | – |
| 69 pmol | 143 pmol | 8.6 pmol | 30 pmol | – | – | CC1CC(O)n2c(nc3[nH]cnc3c2=O)N1 (stereo not drawn) [1,base] | Cross-reactivity | – |

| SMILES | pmol of compound needed for 50% inhibition of binding in the competitive ELISA, CA2 (monoclonal antibody CA2) | pmol of compound needed for 50% inhibition of binding in the competitive ELISA, CA3 (monoclonal antibody CA3) | pmol of compound needed for 50% inhibition of binding in the competitive ELISA, CA1 (monoclonal antibody CA1) | pmol of compound needed for 50% inhibition of binding in the competitive ELISA, CA4 (monoclonal antibody CA4) | affinity of antibody CA1 (monoclonal antibody CA1) | specificity of antibody CA2 (monoclonal antibody CA2) | reactivity / cross-reactivity with the four antibodies [1] | affinity / reactivity of antibody CA3 (monoclonal antibody CA3) |
| --- | --- | --- | --- | --- | --- | --- | --- | --- |
| Cc1cn([C@H]2C[C@H](O)[C@@H](CO)O2)c(=O)[nH]c1=O [Thymidine, reference compound] | > 100,000 pmol | > 100,000 pmol | > 100,000 pmol | > 100,000 pmol | – | – | – | – |
| Nc1ccn([C@H]2C[C@H](O)[C@@H](CO)O2)c(=O)n1 [Deoxycytosine, reference compound] | > 110,000 pmol | > 110,000 pmol | > 110,000 pmol | > 110,000 pmol | – | – | – | – |
